According to PubChem BioAssay AID720590 (Broad Institute, 2013):
Active and inactive are the calls of the source. The rule behind the calls is not given here.

biological target: Mycobacterium tuberculosis BioA (adenosylmethionine-8-amino-7-oxononanoate aminotransferase); assay: inhibition of M. tuberculosis BioA aminotransferase – biochemical, plate reader, dry powder samples, dose response (AID 720590); conditions: M. tuberculosis BioA enzyme assay

| Compound | AC50 |
| --- | --- |
| COc1cc(/C=C/C(=O)Nc2cccnc2)cc(OC)c1OC | 107 nM |
| Cc1ccc(-c2cc(C(F)(F)F)n3nc(C(=O)Nc4cccnc4)cc3n2)cc1 | < 80 nM |
| O=C(O)CC/C(=C\c1ccccc1[N+](=O)[O-])c1nc2ccccc2s1 | > 20000 nM (inactive) |
| CC(=O)c1ccc(N2CCN(C(=O)c3ccc4c(c3)OCO4)CC2)cc1 | < 80 nM |
| CCN(CC)c1ccc2cc(C(=O)c3cccs3)c(=O)oc2c1 | < 80 nM |
| CC(=O)c1ccc(N2CCN(C(=O)c3ccc(C)cc3)CC2)cc1 | 746 nM |
| CCOC(=O)N1CCN(C(=O)Nc2ccc3snnc3c2)CC1 | 424 nM |
| O=C(Nc1cccc(F)c1)N1CCN(c2ccccc2)CC1 | 4330 nM |
| O=C(c1ccc2c(c1)OCO2)N1CCN(c2ccc(Cl)cc2)CC1 | 4320 nM |
| Cc1ccccc1/C=C(\CCC(=O)O)c1nc2ccccc2s1 | 7620 nM |
| O=C(Nc1ccc2snnc2c1)N1CCN(c2ccccc2)CC1 | < 80 nM |
| COC(=O)c1c(C(=O)OC)c(-c2cccc(F)c2)n2c1CS(=O)C2 (stereo unspecified) | 115 nM |
| COc1cccc(NC(=O)CCC2CCN(C(=O)c3ccc(C(C)=O)s3)CC2)c1 | 225 nM |
| CC(=O)c1ccc(N2CCN(C(=O)c3ccc(F)cc3)CC2)cc1 | 300 nM |
| O=C(c1ccc2c(c1)OCO2)N1CCN(c2ccccc2)CC1 | > 20000 nM (inactive) |
| COc1ccc(N2CCN(C(=O)c3ccc4c(c3)OCO4)CC2)cc1 | 5320 nM |
| Cc1cc(C)n2nc(C(=O)Nc3cccnc3)cc2n1 | 150 nM |
| COc1cccc(NC(=O)N2CCN(c3ccccc3)CC2)c1 | > 20000 nM (inactive) |
| Cc1ccc(/C=C(\CCC(=O)O)c2nc3ccccc3s2)cc1[N+](=O)[O-] | < 80 nM |
| CC(=O)c1ccc(N2CCN(C(=O)c3cccnc3)CC2)cc1 | 2040 nM |
| Cc1ccc(/C=C(\CCC(=O)O)c2nc3ccccc3s2)cc1 | 7240 nM |
| O=C(COc1ccc2ccc(=O)oc2c1)N1CCN(c2ccc(F)cc2)CC1 | 162 nM |
| O=C(Nc1cccnc1)c1cnn2c(C(F)F)cc(C3CC3)nc12 | 252 nM |

| Compound | AC50 |
| --- | --- |
| CC(=O)c1ccc(N2CCN(C(=O)c3ccccc3)CC2)cc1 | 161 nM |
| O=C(Nc1ccc2snnc2c1)N1CCCCC1 | 1460 nM |
| COc1cccc(C(=O)N2CCN(c3ccc(C(C)=O)cc3)CC2)c1 | 602 nM |
| CC(=O)c1ccc(N2CCN(C(=O)c3ccc(Br)cc3)CC2)c(F)c1 | < 80 nM |
| CC(=O)c1ccc(N2CCN(C(=O)c3ccc(Cl)cc3)CC2)cc1 | 751 nM |
| CC(=O)c1ccc(N2CCN(C(=O)c3cccc(F)c3)CC2)cc1 | 731 nM |
| Cc1ccc(/C=C(\CCCC(=O)O)c2nc3ccccc3s2)cc1[N+](=O)[O-] | 953 nM |
| O=C(Nc1ccc2snnc2c1)N1CCOCC1 | 896 nM |
| CC(=O)c1ccc(N2CCN(C(=O)c3cccc(Cl)c3)CC2)cc1 | 95.5 nM |
| O=C(Nc1ccc(F)cc1)N1CCN(c2ccccc2)CC1 | 6630 nM |
| Cc1cc(C)n2nc(C(=O)Nc3cccnc3)nc2n1 | 673 nM |
| CC(=O)c1ccc(N2CCN(C(=O)c3ccc4ncsc4c3)CC2)cc1 | 246 nM |
| CCc1ccc(N2CCN(C(=O)c3ccc4c(c3)OCO4)CC2)cc1 | > 20000 nM (inactive) |
| CCc1ccc(C(=O)N2CCN(Cc3ccc4c(c3)OCO4)CC2)cc1 | > 20000 nM (inactive) |
| O=C(O)CC/C(=C\c1ccc([N+](=O)[O-])cc1)c1nc2ccccc2s1 | 988 nM |
| COc1ccc(C(=O)N2CCN(c3ccc(C(C)=O)cc3)CC2)cc1 | 1280 nM |
| O=C(c1ccc2c(c1)OCO2)N1CCN(Cc2ccccc2)CC1 | > 20000 nM (inactive) |
| O=C(Nc1cccnc1)c1cc2nc(-c3cccs3)cc(C(F)(F)F)n2n1 | 87.1 nM |
| CC(C)(C)c1ccc(C(=O)N2CCN(c3ccc4c(c3)OCO4)CC2)cc1 | > 20000 nM (inactive) |
| O=C(Nc1ccc(Cl)c(-c2nc3ccccc3[nH]2)c1)c1cccnc1 | 181 nM |
| CC(=O)c1ccc(N2CCN(Cc3ccc4c(c3)OCO4)CC2)cc1 | 133 nM |
| COc1ccc(-c2cc(C(F)(F)F)n3nc(C(=O)Nc4cccnc4)cc3n2)cc1 | < 80 nM |
| CC(=O)c1ccc(N2CCN(C(=O)c3ccc4c(c3)OCCO4)CC2)cc1 | 2830 nM |

same assay, conditions: M. tuberculosis BioA enzyme assay, at 10 µM (top of the series)

| Compound | activity change, negative = inhibition |
| --- | --- |
| O=C(Nc1ccncc1)c1cc2nc(C3CC3)cc(C(F)F)n2n1 | inactive |
| Cc1nc2cc(NC(=O)N3CCN(c4ccccc4)CC3)ccc2o1 | inactive |
| O=C(c1ccc2c(c1)OCO2)N1CCN(c2ccc(F)cc2)CC1 | inactive |
| Cc1ccc(NC(=O)N2CCN(c3ccccc3)CC2)cc1 | inactive |
| Cc1nc2ccc(NC(=O)N3CCN(c4ccccc4)CC3)cc2s1 | inactive |
| O=C(Nc1cccnc1)c1cnn2c(C(F)(F)F)cc(-c3ccccc3)nc12 | inactive |
| O=C(Nc1ccccc1)N1CCN(c2ccccc2)CC1 | inactive |
| O=C(Nc1ccc(Cl)cc1)c1cc2nc(C3CC3)cc(C(F)(F)F)n2n1 | inactive |
| COc1ccc(NC(=O)N2CCN(c3ccccc3)CC2)cc1 | inactive |
| O=C(Nc1ccc2[nH]ccc2c1)N1CCN(c2ccccc2)CC1 | inactive |
